Data: patent US11339181B2, “Crystalline forms of a Janus kinase inhibitor” (Japan Tobacco Inc., priority 2016, dated 2022)
Values after ≈ are worked out from the molar mass of the structure shown.

Assay: Solubility test (shaken at 20° C. for 3 hours, filtered, HPLC)
Format: physicochemical
Settings: for solubility at 3 h: 20 °C, thermodynamic from solid; for solubility at 3 h / Solubility: 20° C., shaken 3 hours; for Solubility rank among Forms α, β, γ: in each solvent measured
Experimental: Each sample (i.e., Forms α, β, and γ of Compound A) was weighed to a 4-mL-volume glass vial. A test solution (3 mL) was added to the vial and the mixture was suspended. About 150 mg of the sample was weighed for the test solution of the 1st fluid for solubility test of The Japanese Pharmacopoeia and about 15 mg was weighed for the test solutions of the 2nd fluid for solubility test of The Japanese Pharmacopoeia and water. Each mixture was shaken with a constant temperature incubator shaker (manufactured by TAITEC) at 20° C. for 3 hours. After being shaken, the supernatant was filtered through a polytetrafluoroethylene disk filter (Millex-LG; manufactured by Millipore) with the 0.2-μm pore size and 4-mm diameter. The measurement was performed by high-performance liquid chromatography (HPLC).

[1] = Solvent: JP 1st fluid for solubility test, pH about 1.2
[2] = Solvent: JP 2nd fluid for solubility test (water / phosphate buffer pH 6.8, 1:1)

| SMILES | solubility at 3 h (JP 1st fluid for solubility test, pH 1.2, simulated gastric fluid, Solvent: JP 1st fluid for solubility test, pH about 1.2) [µg/mL] | solubility at 3 h (JP 2nd fluid for solubility test, pH 6.8, aqueous buffer, Solvent: JP 2nd fluid for solubility test (water / phosphate buffer pH 6.8, 1:1)) [µg/mL] | Solubility rank among Forms α, β, γ | solubility at 3 h (water, water, Solvent: Water) [µg/mL] | Solubility [1] [µg/mL] | Solubility [2] [µg/mL] | Solubility (Solvent: Water) [µg/mL] |
| --- | --- | --- | --- | --- | --- | --- | --- |
| C[C@H]1CN(C(=O)CC#N)[C@]12CCN(c1ncnc3[nH]ccc13)C2 [Form α, 3-((3S,4R)-3-methyl-6-(7H-pyrrolo[2,3-d]pyrimidin-4-yl)-1,6-diazaspiro[3.4]octan-1-γ 1)-3-oxopropanenitrile] | 45000 (≈ 145 mM) | 2700 (≈ 8.7 mM) | highest solubility | 2600 (≈ 8.38 mM) | – | – | – |
| C[C@H]1CN(C(=O)CC#N)[C@]12CCN(c1ncnc3[nH]ccc13)C2 [Form β, 3-((3S,4R)-3-methyl-6-(7H-pyrrolo[2,3-d]pyrimidin-4-yl)-1,6-diazaspiro[3.4]octan-1-γ 1)-3-oxopropanenitrile] | – | – | – | – | 39100 (≈ 126 mM) | 2100 (≈ 6.77 mM) | 2000 (≈ 6.44 mM) |
| C[C@H]1CN(C(=O)CC#N)[C@]12CCN(c1ncnc3[nH]ccc13)C2 [Form γ, 3-((3S,4R)-3-methyl-6-(7H-pyrrolo[2,3-d]pyrimidin-4-yl)-1,6-diazaspiro[3.4]octan-1-γ 1)-3-oxopropanenitrile] | – | – | lowest solubility | – | 36400 (≈ 117 mM) | 1500 (≈ 4.83 mM) | 1500 (≈ 4.83 mM) |
